In patent US6333406A, “Gene encoding protein antigens of Plasmodium falciparum and uses therefor” (priority 1994, dated 2001):
Values joined by “and” are separate entries in the source; they are usually repeats but may differ in a detail not shown here. Identical values can stand only once.

Assays:
[1] = target: T1, DHFR^Ser108 (reconstructed P. falciparum DHFR) (Plasmodium falciparum, UniProt P13922, N108S/R59C); test: Inhibition of recombinant DHFR activity, spectrophotometric assay with Dixon plot analysis; assay type: biochemical
T1 construct: The gene encoding DHFR part of the P. falciparum DHFR-TS complex; made in house; host or cells: E. coli JM103, plasmid pET-PfDHFR^Ser108 (pET-3a), induced with M13-pKM2
From the text: (§1) The decrease in A340 was monitored by a HITACHI spectrophotometer U-2000. The blank sample consisted of all the reaction components except the enzyme.

[2] = tested on: DHFR^Thr108 (reconstructed P. falciparum DHFR); details: Dixon plots for DHFR^Thr108 and DHFR^Ser108 (FIGS. 19A-19F)
From the text: as §1

[3] = tested on: NC(=O)C1=CN([C@@H]2O[C@H](COP(=O)(O)OP(=O)(O)OC[C@H]3O[C@@H](n4cnc5c(N)ncnc54)[C@H](OP(=O)(O)O)[C@@H]3O)[C@@H](O)[C@H]2O)C=CC1; test: purified protein, by the assay type; details: other: substrate Km, reconstructed P.f. DHFR Thr108 (Table IV); pH 7.6; 37.0 °C
[4] = target: SE47' recombinant SERA protein produced in E. coli (Plasmodium falciparum); test: ELISA of control mouse serum
[5] = target: SE50A recombinant SERA protein produced in E. coli (Plasmodium falciparum); test: ELISA of control rat serum
[6] = tested on: SE50A; test: ELISA value of rat sera immunized with recombinant SERA protein SE50A; assay type: in vivo; details: individual rats 1-3; subcutaneous, insoluble form without adjuvant, days 1, 22, 50
From the text: The SE50A protein was produced in E. coli cells as described for SE47'. The products were obtained as an inclusion body in the precipitate of lysed cells. The precipitate was solubilized with a buffer containing 5M guanidine HCl. After removal of insoluble materials, SE50A protein was precipitated by removing the 5M guanidine HCl again. These processes were repeated 3 times. The final precipitate contained SE50A at more than 80% purity. Three rats were immunized by subcutaneous injection of the insoluble form of SE50A without adjuvant three times on days 1, 22, and 50.

[7] = tested on: SERA protein; test: Immunoblot of whole cellular proteins of Plasmodium falciparum FCR3 strain with antiserum against SE47' or SE50A; assay type: binding; details: mouse anti-SE47' serum, rat anti-SE50A serum
Method: The antisera used for the immunoblot were as follows: lane 1, control mouse serum; lane 2, mouse anti-SF47' serum; lane 3, control rat serum; lane 4, rat anti-SE50A serum. The arrow indicates the molecular weight corresponding to SERA protein.
Parasite cells were isolated by saponin lysis of the in vitro culture. The prepared cells were analyzed by immunoblotting using SDS-polyacrylamide gel electrophoresis (12.5%). The antisera used for the immunoblot (FIG. 15) were as follows: lane 1, control mouse serum; lane 2, mouse #3 anti-SE47' serum; lane 3, control rat serum; lane 4, rat #1 anti-SE50A serum. The arrow indicates the molecular weight corresponding to SERA protein.

[8] = tested on: Plasmodium falciparum (FCR3); test: Plasmodium falciparum growth inhibition with anti-SERA serum; assay type: cell-based; details: FCR3 culture, serum dilutions, parasitemia after 72 hours (FIGS. 16A-16B)
Method: FIGS. 16A and 16B show Plasmodium falciparum growth inhibition with anti-SER47' and anti-SE50A serum. […] The inhibition confirms that the new constructs of SERA (FIG. 10, FIG. 11, and FIG. 12) produce immunogenic material and that adjuvant enhances the induction of parasite inhibitory levels of antibodies.
The Plasmodium falciparum cell (FCR3) was grown in an in vitro culture containing 5% red blood cells (RBC). When the parasitized RBC, 96% were trophozoite and schizont, reached 4.4% of total RBC, the culture was diluted to 1% of parasitized cell in total RBC and 2% of RBC in medium. The 100 µl of the diluted culture was incubated in a 96 well dish. The culture media which contains rat or mouse serum at the indicated dilution were changed each 24 hours. Parasitemia was measured by Giemsa staining after 72 hours incubation. The sera used here were from the animal #3 of SE47' and #1 of SE50A, each of whose ELISA titer was described in Table VI.

[9] = substrate Km of DHFR^Ser108, as stated in text
[10] = substrate Km, reconstructed P.f. DHFR Ser108 (Table IV)

Q: What does the source list for `Nc1nc2c(c(=O)[nH]1)N=C(CNc1ccc(C(=O)N[C@@H](CCC(=O)O)C(=O)O)cc1)CN2` [DHF]?
A: Km [1, 9]: 67 µM; Km [1, 10]: 66.6 ± 2.6 µM

Q: How did the Km [1, 9] turn out when `NC(=O)C1=CN([C@@H]2O[C@H](COP(=O)(O)OP(=O)(O)OC[C@H]3O[C@@H](n4cnc5c(N)ncnc54)[C@H](OP(=O)(O)O)[C@@H]3O)[C@@H](O)[C@H]2O)C=CC1` [NADPH] was run?
A: The Km was 90 µM.

Q: What about the Km [1, 10] of the same molecule?
A: The Km was 90.2 ± 4.3 µM.

Q: How did the “manner of enzyme inhibition” value [2] turn out when `CN(Cc1cnc2nc(N)nc(N)c2n1)c1ccc(C(=O)N[C@@H](CCC(=O)O)C(=O)O)cc1` [methotrexate] was run?
A: Its value is “competitive”.

Q: Which “manner of enzyme inhibition” value [2] does the source give for `CCc1nc(N)nc(N)c1-c1ccc(Cl)cc1` [pyrimethamine] here?
A: The value was “competitive”.

Q: For “DHFR^Thr108 (reconstructed P. falciparum DHFR) (Plasmodium falciparum K1; N108T/R59C)”, which Km [3] is on record?
A: The Km was 19.2 ± 0.4 µM.

Q: With “control mouse serum (polyclonal serum or antibody)” as the molecule, how does the ELISA Titer [4] read?
A: The ELISA Titer was under 200.

Q: “control rat serum (polyclonal serum or antibody)” was tested. Which ELISA Titer [5] did it give?
A: The ELISA Titer was under 50.

B1: SE50A: recombinant portion of the 50 kd processed SERA protein, SEQ ID NO: 17, produced in E. coli as inclusion body (protein)
chain: MKDENNCISNLQVEDQGNCDTSWIFASKYHLETIRCMKGYEPTKISALYVANCYKGEHKDRCDEGSSPMEFLQIIEDYGFLPAESNYPYNYVKVGEQCPKVEDHWMNLWDNGKILHNKNEPNSLDGKGYTAYESERFHDNMDAFVKIIKTEVMNKGSVIAYIKAENVMGYEFSGKKVQNLCGDDTADHAVNIVGYGNYVNSEGEKKSYWIVRNSWGPYWGDEGYFKVDMYGPTHCHIEF
Q: Which “ELISA Titer” value [6] does the source give for B1 here?
A: Its value is 10,000 and 8,330.

Q: And the “recognition of SERA protein by antiserum in immunoblot” value [7]?
A: Its value is “recognize the complete SERA protein”.

Q: And the “parasite growth inhibition by antiserum raised against the protein” value [8]?
A: The value was “indistinguishable from control serum except at the lowest dilution”.
